How the values were obtained:
[1] = tested on: anastomotic wound healing; assay: Colonic anastomotic burst pressure (intestinal wound healing); assay type: in vivo, Male Wistar rats; details: 50 mg/kg intraperitoneally, single intra-op dose, at 7 days, FIG. 3B
Method: (§1) The surgical procedure described in Chu et al. (Surgery, 2011, 149(6): 801-812), content of which is herein incorporated by reference in its entirety, was used to test the HDAC inhibitors discussed herein. […] Adhesions were induced on the day of operation using our previously described ischemic button model. Animals were killed on postoperative day 7 for adhesion scoring. The effect of the HDAC inhibitors on intestinal wound healing was measured using colonic anastomotic burst pressures.
In the final experiment, the inventors tested the effects of intraperitoneal HDAC inhibitors on anastomotic wound healing. Male Wistar rats were randomized to operative controls (OP Control) or operative treatment with HDAC inhibitor as noted in the figure. […] In brief, after laparotomy and division of the distal colon, an end-to-end colonic anastomosis was created using a single running layer of 7-0 polypropylene suture. Animals were killed 7 days postoperatively and, after removing a 4-cm segment containing the anastomosis, the segment underwent measurements of burst pressure as described in Aarons et al. (Annals of Surgery, 2007, 245(2): 176-184), content of which is incorporated herein by reference in its entirety.

adhesion formation = assay: Ischemic button model of intraabdominal adhesion formation, adhesion scoring on postoperative day 7; assay type: in vivo, Male Wistar rats; details: for % Reduction (of adhesion formation vs control) / Mean adhesion formation (percentage of ischemic buttons with attached adhesions): rats, single intra-operative intraperitoneal dose (SAHA 50 mg/kg, MS-275 10 mg/kg); for % Reduction (of adhesion formation vs control): postoperative day 7; for Mean adhesion formation (percentage of ischemic buttons with attached adhesions): scored postoperative day 7, N=6; for treatment of surgical adhesions (result in words): single intra-operative dose, FIG. 4
Method: as §1
Male Wistar rats (range, 200-225 g; Charles River Laboratories, Wilmington, Mass.) warehoused at constant room temperature and under 12-hour light/12-hour dark cycles and allowed access to food and water ad libitum. The Institutional Animal Care and Use Committee at the Boston University School of Medicine approved this study, and all procedures described were performed in accordance with recommendations outlined in the Guide for the Care and Use of Laboratory Animals: Eighth Edition (NRC 2011) published by the National Academies of Science.
Intraperitoneal ischemic buttons were created as described in Reed et al. (J. Surgical Res., 2002, 108:165-172), content of which is herein incorporated by reference in its entirety. In brief, after a midline laparotomy, 6 ischemic buttons (3 on each side) were created by ligating 5 mm of parietal peritoneum with 4-0 silk suture. Adhesion formation was quantified in a blinded fashion on postoperative day 7 by scoring the percentage of buttons with attached fibrinous adhesions in each rat. For example, an animal that had adhesions attached to 4 of its 6 ischemic buttons received a score of 66%.

Compound | anastomotic wound healing (burst pressure) [1] | adhesion formation (adhesion formation; 25 mg/kg, three doses (pre-op, intra-op and pre-op), FIG. 2A) | adhesion formation (adhesion formation; 50 mg/kg intraperitoneally, 3 doses (24 hr pre-op, intra-op, 24 hrs post-op), at 7 days, FIG. 1B) | adhesion formation (adhesion formation; 50 mg/kg intraperitoneally, single intra-op dose, at 7 days, FIG. 2A) | adhesion formation (adhesion formation; 100 mg/kg intraperitoneally, 3 doses (24 hr pre-op, intra-op, 24 hrs post-op), at 7 days, FIG. 1A) | adhesion formation (adhesion formation; 200 mg/kg intraperitoneally, 3 doses (24 hr pre-op, intra-op, 24 hrs post-op), FIG. 1A) | % Reduction (of adhesion formation vs control) (adhesion formation) [%] | Mean adhesion formation (percentage of ischemic buttons with attached adhesions) (adhesion formation) [%] | treatment of surgical adhesions (result in words) (adhesion formation)
CCCC(CCC)C(=O)O [valproic acid] | did not affect | effective | significantly reduced | significantly reduced | significantly reduced | effective | – | – | –
Nc1ccccc1NC(=O)c1ccc(CNC(=O)OCc2cccnc2)cc1 [MS-275] | – | – | – | – | – | – | 45.16 | 47.2222 | effective
O=C(CCCCCCC(=O)Nc1ccccc1)NO [SAHA, suberoylanlide hydroxamic acid] | – | – | – | – | – | – | 48.39 | 44.4444 | effective

— patent US20140370080A1, “HISTONE DEACETYLASE (HDAC) INHIBITORS FOR TREATMENT OF POST-SURGICAL ADHESIONS” (TRUSTEES OF BOSTON UNIVERSITY, priority 2011, published 2014)
